This assay has as its system tumeur M₄. Briefly: Inhibition of development of lung metastases (M4 tumour cells injected i.v. with peptide). Format: in vivo, souris C57BL/6. Conditions: injected in tail vein with 10⁵ M₄ cells, lung colonies counted after 15 days, PBS control 117,5 ± 14,4. How it is done:
On a utilisé la tumeur M₄, une sous-lignée obtenue par sélection d'un sarcome induit par le benzopyrène chez la souris C57BL/6 (Mantovani Int. J. Cancer, 22, 741, 1978).
Les cellules M₄ ont été désagrégées avec de la DNAse et de la collagènase pendant 30 minutes à 37°C. On a lavé les cellules deux fois avec du PBS et on les a remis en suspension dans le même tampon à la concentration de […]. On a injecté lentement dans le veine de la queue de souris C57BL/6 0,2 ml de PBS contenant différentes concentrations de peptide et 10⁵ cellules M₄/souris.
Au bout de 15 jours on a tué les souris et excisé les poumons, et on les a fixés avec une solution de Bouin. On a compté visuellement les colonies. Les résultats obtenus avec le peptide KQRGDF sont donnés dans le tableau suivant.

Consider “H-KQRGDF-OH [KQRGDF, H-Lys-Gln-Arg-Gly-Asp-Phe-OH]”, for which the Nombre de colonie is 25,3 ± 9,4 (0,75 mg/souris), 0,2 (1,5 mg/souris) and 0 (3,0 mg/souris).
